Bridge positions count the residues as written; N and C are the ends. Peptide text beside a SMILES is read from it. * marks the point of attachment. X8 = O=P(O)(O)OC[C@H]1O[C@H](O[C@H]2[C@@H](O)[C@H](O)[C@@H](CO)O[C@@H]2*)[C@@H](O)[C@@H](O)[C@@H]1O; X2 = OC[C@H]1O[C@H](O[C@H]2[C@@H](O)[C@H](O)[C@@H](CO)O[C@@H]2*)[C@@H](O)[C@@H](O)[C@@H]1O

Consider four compounds from paper PMC5580309, “Molecular-scale features that govern the effects of O-glycosylation on a carbohydrate-binding module” (Chemical Science, 2015).

In this series the target is T1, thermolysin (Bacillus thermoproteolyticus, UniProt P00800).
T1 sequence (P00800 233-548): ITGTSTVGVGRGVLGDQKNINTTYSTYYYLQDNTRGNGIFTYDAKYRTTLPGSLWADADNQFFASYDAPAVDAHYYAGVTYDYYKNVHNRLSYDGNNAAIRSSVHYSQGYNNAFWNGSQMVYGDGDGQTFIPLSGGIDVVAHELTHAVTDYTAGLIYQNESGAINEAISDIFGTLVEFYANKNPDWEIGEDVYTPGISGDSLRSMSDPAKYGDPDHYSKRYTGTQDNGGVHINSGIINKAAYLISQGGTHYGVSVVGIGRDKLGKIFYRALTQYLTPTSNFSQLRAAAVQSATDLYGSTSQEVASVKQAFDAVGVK
The series is described as follows: Proteolytic stability: half-life to thermolysin degradation. The class given is in vitro ADME. The settings on record: for Change in Half-Life to Thermolysin Degradation: glyco-variant minus its corresponding unglycosylated CBM (e.g. 2-1), *** not used in the correlation plot; for half-life: thermolysin (isolated protease), thermolysin degradation, mean of three trials ± SD, procedures as described previously (ESI ref 18). On the procedure:
All error bars reported are standard deviations of data achieved from three separate trials.
cellulose that were determined in accordance with our procedures as described previously 18.
The results are presented as mean of three trials ± SD. *Denotes an averaged value of four trials

Regarding `CC[C@H](C)[C@@H]1NC(=O)CNC(=O)CNC(=O)[C@@H](NC(=O)[C@H](CCC(N)=O)NC(=O)CNC(=O)[C@H](Cc2ccc(O)cc2)NC(=O)[C@H](Cc2c[nH]cn2)NC(=O)[C@H](CO[C@H]2O[C@H](CO)[C@@H](O)[C@H](O)[C@@H]2O[C@H]2O[C@H](COP(=O)(O)O)[C@@H](O)[C@H](O)[C@@H]2O)NC(=O)[C@H](CCC(N)=O)NC(=O)[C@@H](N)[C@@H](C)O)CSSC[C@@H]2NC(=O)[C@H]([C@@H](C)O)NC(=O)[C@H]([C@@H](C)O)NC(=O)CNC(=O)[C@H](CO)NC(=O)[C@H](C)NC(=O)[C@H](CSSC[C@@H](C(=O)N[C@@H](CC(C)C)C(=O)O)NC(=O)[C@H](CCC(N)=O)NC(=O)[C@H](CO)NC(=O)[C@H](Cc3ccc(O)cc3)NC(=O)[C@H](Cc3ccc(O)cc3)NC(=O)[C@@H]3CCCN3C(=O)[C@H](CC(N)=O)NC(=O)[C@H](CC(C)C)NC(=O)[C@H](C(C)C)NC(=O)[C@H](CCC(N)=O)NC2=O)NC(=O)[C@H](C(C)C)NC(=O)[C@H]([C@@H](C)O)NC(=O)[C@@H]2CCCN2C(=O)CNC(=O)[C@H](CO)NC(=O)[C@H](Cc2ccc(O)cc2)NC(=O)CNC1=O` [CBM variant 31] (H-TQS(X8)HYGQCGGIGYSGPTVCASGTTCQVLNPYYSQCL-OH; disulfide 8-25, 19-35), the “Change in Half-Life to Thermolysin Degradation” value stood at 12 min and the half-life was 25.8 ± 3 min. As to `CC[C@H](C)[C@@H]1NC(=O)CNC(=O)CNC(=O)[C@@H](NC(=O)[C@H](CCC(N)=O)NC(=O)CNC(=O)[C@H](C)NC(=O)[C@H](Cc2c[nH]cn2)NC(=O)[C@H](CO[C@H]2O[C@H](CO)[C@@H](O)[C@H](O)[C@@H]2O[C@H]2O[C@H](CO)[C@@H](O)[C@H](O)[C@@H]2O)NC(=O)[C@H](CCC(N)=O)NC(=O)[C@@H](N)[C@@H](C)O)CSSC[C@@H]2NC(=O)[C@H]([C@@H](C)O)NC(=O)[C@H]([C@@H](C)O)NC(=O)CNC(=O)[C@H](CO)NC(=O)[C@H](C)NC(=O)[C@H](CSSC[C@@H](C(=O)N[C@@H](CC(C)C)C(=O)O)NC(=O)[C@H](CCC(N)=O)NC(=O)[C@H](CO)NC(=O)[C@H](Cc3ccc(O)cc3)NC(=O)[C@H](Cc3ccc(O)cc3)NC(=O)[C@@H]3CCCN3C(=O)[C@H](CC(N)=O)NC(=O)[C@H](CC(C)C)NC(=O)[C@H](C(C)C)NC(=O)[C@H](CCC(N)=O)NC2=O)NC(=O)[C@H](C(C)C)NC(=O)[C@H]([C@@H](C)O)NC(=O)[C@@H]2CCCN2C(=O)CNC(=O)[C@H](CO)NC(=O)[C@H](Cc2ccc(O)cc2)NC(=O)CNC1=O` [CBM variant 32] (H-TQS(X2)HAGQCGGIGYSGPTVCASGTTCQVLNPYYSQCL-OH; disulfide 8-25, 19-35), the “Change in Half-Life to Thermolysin Degradation” value turned out to be 1.2 min and the half-life is 6 ± 1.2 min. In the same order, the values of `CC[C@H](C)[C@@H]1NC(=O)CNC(=O)CNC(=O)[C@@H](NC(=O)[C@H](CCC(N)=O)NC(=O)CNC(=O)[C@H](Cc2ccc(O)cc2)NC(=O)[C@H](Cc2c[nH]cn2)NC(=O)[C@@H](NC(=O)[C@H](CCC(N)=O)NC(=O)[C@@H](N)[C@@H](C)O)[C@@H](C)O[C@H]2O[C@H](CO)[C@@H](O)[C@H](O)[C@@H]2O[C@H]2O[C@H](CO)[C@@H](O)[C@H](O)[C@@H]2O)CSSC[C@@H]2NC(=O)[C@H]([C@@H](C)O)NC(=O)[C@H]([C@@H](C)O)NC(=O)CNC(=O)[C@H](CO)NC(=O)[C@H](C)NC(=O)[C@H](CSSC[C@@H](C(=O)N[C@@H](CC(C)C)C(=O)O)NC(=O)[C@H](CCC(N)=O)NC(=O)[C@H](CO)NC(=O)[C@H](Cc3ccc(O)cc3)NC(=O)[C@H](Cc3ccc(O)cc3)NC(=O)[C@@H]3CCCN3C(=O)[C@H](CC(N)=O)NC(=O)[C@H](CC(C)C)NC(=O)[C@H](C(C)C)NC(=O)[C@H](CCC(N)=O)NC2=O)NC(=O)[C@H](C(C)C)NC(=O)[C@H]([C@@H](C)O)NC(=O)[C@@H]2CCCN2C(=O)CNC(=O)[C@H](CO)NC(=O)[C@H](Cc2ccc(O)cc2)NC(=O)CNC1=O` [CBM variant 33] (H-TQT(X2)HYGQCGGIGYSGPTVCASGTTCQVLNPYYSQCL-OH; disulfide 8-25, 19-35) are 72 min and 93.6 ± 24 min. Consider `CC[C@H](C)[C@@H]1NC(=O)CNC(=O)CNC(=O)[C@@H](NC(=O)[C@H](CCC(N)=O)NC(=O)CNC(=O)[C@H](Cc2ccc(O)cc2)NC(=O)[C@H](Cc2c[nH]cn2)NC(=O)[C@H](CS[C@H]2O[C@H](CO)[C@@H](O)[C@H](O)[C@@H]2O[C@H]2O[C@H](CO)[C@@H](O)[C@H](O)[C@@H]2O)NC(=O)[C@H](CCC(N)=O)NC(=O)[C@@H](N)[C@@H](C)O)CSSC[C@@H]2NC(=O)[C@H]([C@@H](C)O)NC(=O)[C@H]([C@@H](C)O)NC(=O)CNC(=O)[C@H](CO)NC(=O)[C@H](C)NC(=O)[C@H](CSSC[C@@H](C(=O)N[C@@H](CC(C)C)C(=O)O)NC(=O)[C@H](CCC(N)=O)NC(=O)[C@H](CO)NC(=O)[C@H](Cc3ccc(O)cc3)NC(=O)[C@H](Cc3ccc(O)cc3)NC(=O)[C@@H]3CCCN3C(=O)[C@H](CC(N)=O)NC(=O)[C@H](CC(C)C)NC(=O)[C@H](C(C)C)NC(=O)[C@H](CCC(N)=O)NC2=O)NC(=O)[C@H](C(C)C)NC(=O)[C@H]([C@@H](C)O)NC(=O)[C@@H]2CCCN2C(=O)CNC(=O)[C@H](CO)NC(=O)[C@H](Cc2ccc(O)cc2)NC(=O)CNC1=O` [CBM variant 34] (H-TQC(X2)HYGQCGGIGYSGPTVCASGTTCQVLNPYYSQCL-OH; disulfide 8-25, 19-35), for which the half-life was 10.8 ± 1.2 min.

Usually half-life stands for the time in which the quantity being followed falls by half.
